# Reference: patent US7326721B2 (Hypnion, Inc., priority 2003, dated 2008)
# How the values were obtained:
# [1] = target: T1, CYP 2C19 (Homo sapiens, UniProt P33261); experiment: Cytochrome P450 inhibition: CYP 2C19; assay type: in vitro ADME; conditions: human microsomal preparation
# T1 construct: in a commercially available human microsomal preparation; purchased; host or cells: human microsomal preparation
# Description: (§1) Cytochrome P450 inhibition was studied with HY2901 in vitro. […] In addition, the in vitro rate of metabolism in rat, dog, monkey, and human hepatocyte cultures was determined for HY2901.
# [2] = target: T2, CYP 2D6 (Homo sapiens, UniProt P10635); experiment: Cytochrome P450 inhibition: CYP 2D6; assay type: in vitro ADME; conditions: human microsomal preparation
# T2 construct: in a commercially available human microsomal preparation; purchased; host or cells: human microsomal preparation
# Description: as §1
# [3] = 14-day rat study with recovery; assay type: in vivo; conditions: both sexes, Crl:CD(SD)IGS BR, rat, in vivo, po
# Description: (§2) The purpose of this study was to evaluate the toxicity of HY2901 when administered via oral gavage to rats for at least 14 days and to assess the reversibility, persistence, or delayed occurrence of any effects after a recovery period of up to 14 days.
# (§3) Male and female Crl:CD®(SD)IGS BR rats were assigned to seven groups, four main study groups and three groups for toxicokinetics. Each group received dose preparations containing 0.25% methylcellulose, 400 cps in 200 mM acetate buffer, or 10, 30, or 150 mg of test article/kg of body weight (mg/kg/day) at a dose volume of 5 mL/kg.
# (§4) Assessment of toxicity was based on mortality, clinical and ophthalmic observations, body weights, food consumption, clinical pathology, organ weights, and macroscopic and microscopic findings. Blood samples were collected for toxicokinetic evaluation.
# [4] = test system: Crl:CD(SD)IGS BR rats; experiment: 14-day rat study with recovery; assay type: in vivo
# Description: as §2, §3, §4
# [5] = test system: Beagles; experiment: 14-day dog study with recovery phase; assay type: in vivo
# Description: (§5) The toxicity and the toxicokinetics of HY2901 when administered daily via oral gavage (Phase 1) or capsules (Phase 2) to dogs for at least 14 days was determined. The reversibility, persistence, or delayed occurrence of observable effects following a 7-day (Phase 1) or 14-day (Phase 2) recovery period was also assessed. Doses of 3, 10, 30, and 70 mg/kg/day were studied.
# [6] = 14-day dog study with recovery phase; assay type: in vivo; conditions: Beagle, dog, in vivo
# Description: as §5
# [7] = target: hERG (Homo sapiens, UniProt Q12809); conditions: human, 10 µM, pH 7.4
# [8] = test system: CYP 3A; experiment: Cytochrome P450 inhibition: CYP 3A; assay type: in vitro ADME; conditions: human microsomal preparation
# Description: as §1
# [9] = Urinary excretion in animal species; assay type: in vivo; conditions: animal species administered HY2901
# [10] = target: Dopamine Transporter (Homo sapiens, UniProt Q01959); experiment: Table 12 panel: Dopamine Transporter; conditions: 1.0E−6, average N=2, read-out: percentage inhibition of specific binding
# Description: (§6) The percentage inhibition (average; N=2) for these receptors is shown below in Table 12.
# (§7) Values in Table 12 are expressed as percentage inhibition of specific binding, and these values represent the average of replicate tubes at each of the concentrations tested.
# [11] = target: Thyrotropin Releasing Hormone, TRH (Homo sapiens, UniProt P34981); experiment: Table 12 panel: TRH; conditions: 1.0E−6, average N=2, read-out: percentage inhibition of specific binding
# Description: as §6, §7
# [12] = target: Nitric Oxide, NOS (Neuronal-Binding) (Homo sapiens, UniProt P29475); experiment: Table 12 panel: NOS; conditions: 1.0E−6, average N=2, read-out: percentage inhibition of specific binding
# Description: as §6, §7
# [13] = target: Esterase, Acetylcholine (Homo sapiens, UniProt P22303); experiment: Table 12 panel: Acetylcholine esterase; assay type: biochemical; conditions: 1.0E−6, average N=2
# Description: as §6, §7
# [14] = target: Vasopressin 1 (Homo sapiens, UniProt P37288); experiment: Table 12 panel: Vasopressin 1; conditions: 1.0E−6, average N=2, read-out: percentage inhibition of specific binding
# Description: as §6, §7
# [15] = test system: Vasoactive Intestinal Peptide, Non-selective; experiment: Table 12 panel: VIP; assay type: binding; conditions: 1.0E−6, average N=2
# Description: as §6, §7
# [16] = test system: Estrogen; experiment: Table 12 panel: Estrogen; assay type: binding; conditions: 1.0E−6, average N=2
# Description: as §6, §7
# [17] = test system: Adrenergic, Beta, Non-selective; experiment: Table 12 panel: Adrenergic, Beta; assay type: binding; conditions: 1.0E−6, average N=2
# Description: as §6, §7
# [18] = target: Oxidase, MAO-A, Peripheral (Homo sapiens, UniProt P21397); experiment: Table 12 panel: MAO-A; assay type: biochemical; conditions: 1.0E−6, average N=2
# Description: as §6, §7
# [19] = target: Testosterone (cytosolic) (Homo sapiens, UniProt P10275); experiment: Table 12 panel: Testosterone; conditions: 1.0E−6, average N=2, read-out: percentage inhibition of specific binding
# Description: as §6, §7
# [20] = target: Thromboxane A2 (h) (Homo sapiens, UniProt P21731); experiment: Table 12 panel: Thromboxane A2; conditions: 1.0E−6, average N=2, read-out: percentage inhibition of specific binding
# Description: as §6, §7
# [21] = target: Histamine, H2 (Homo sapiens, UniProt P25021); experiment: Table 12 panel: Histamine, H2; conditions: 1.0E−6, average N=2, read-out: percentage inhibition of specific binding
# Description: as §6, §7
# [22] = target: Calcium Channel, Type N (Homo sapiens, UniProt Q00975); experiment: Table 12 panel: Calcium Channel, Type N; conditions: 1.0E−6, average N=2, read-out: percentage inhibition of specific binding
# Description: as §6, §7
# [23] = target: Bradykinin, BK2 (Homo sapiens, UniProt P30411); experiment: Table 12 panel: Bradykinin, BK2; conditions: 1.0E−6, average N=2, read-out: percentage inhibition of specific binding
# Description: as §6, §7
# [24] = target: Choline Acetyltransferase (Homo sapiens, UniProt P28329); experiment: Table 12 panel: Choline Acetyltransferase; assay type: biochemical; conditions: 1.0E−6, average N=2
# Description: as §6, §7
# [25] = target: Angiotensin II, AT1 (h) (Homo sapiens, UniProt P30556); experiment: Table 12 panel: Angiotensin II, AT1; conditions: 1.0E−6, average N=2, read-out: percentage inhibition of specific binding
# Description: as §6, §7
# [26] = target: Cholecystokinin, CCK1 (CCKA) (Homo sapiens, UniProt P32238); experiment: Table 12 panel: CCK1; conditions: 1.0E−6, average N=2, read-out: percentage inhibition of specific binding
# Description: as §6, §7
# [27] = target: Endothelin, ET-B (h) (Homo sapiens, UniProt P24530); experiment: Table 12 panel: Endothelin, ET-B; conditions: 1.0E−6, average N=2, read-out: percentage inhibition of specific binding
# Description: as §6, §7
# Chain of Bradykinin, BK2 (P30411 whole entry): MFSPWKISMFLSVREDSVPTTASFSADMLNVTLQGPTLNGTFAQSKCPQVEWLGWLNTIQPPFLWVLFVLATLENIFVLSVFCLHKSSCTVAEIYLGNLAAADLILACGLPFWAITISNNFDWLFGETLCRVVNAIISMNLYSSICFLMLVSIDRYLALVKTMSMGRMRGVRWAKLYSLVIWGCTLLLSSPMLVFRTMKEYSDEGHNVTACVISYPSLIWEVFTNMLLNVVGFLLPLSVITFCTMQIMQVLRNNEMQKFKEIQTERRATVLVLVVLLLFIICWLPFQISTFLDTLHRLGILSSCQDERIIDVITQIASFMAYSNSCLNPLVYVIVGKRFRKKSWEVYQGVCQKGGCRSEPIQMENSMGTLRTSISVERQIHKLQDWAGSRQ
# T2 sequence (P10635 whole entry): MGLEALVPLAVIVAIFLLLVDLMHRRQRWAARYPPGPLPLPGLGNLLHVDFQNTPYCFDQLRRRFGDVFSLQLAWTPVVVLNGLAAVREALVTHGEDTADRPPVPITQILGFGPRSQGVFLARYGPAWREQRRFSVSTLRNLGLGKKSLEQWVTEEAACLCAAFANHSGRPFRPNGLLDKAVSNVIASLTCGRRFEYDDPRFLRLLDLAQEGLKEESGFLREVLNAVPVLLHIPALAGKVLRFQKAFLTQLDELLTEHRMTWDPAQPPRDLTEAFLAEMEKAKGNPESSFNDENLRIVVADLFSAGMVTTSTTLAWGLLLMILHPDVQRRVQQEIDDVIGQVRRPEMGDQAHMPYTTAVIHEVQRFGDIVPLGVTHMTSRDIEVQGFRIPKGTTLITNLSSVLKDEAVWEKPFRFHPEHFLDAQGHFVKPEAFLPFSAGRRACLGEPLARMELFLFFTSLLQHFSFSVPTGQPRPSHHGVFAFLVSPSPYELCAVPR
# Chain of Thromboxane A2 (h) (P21731 whole entry): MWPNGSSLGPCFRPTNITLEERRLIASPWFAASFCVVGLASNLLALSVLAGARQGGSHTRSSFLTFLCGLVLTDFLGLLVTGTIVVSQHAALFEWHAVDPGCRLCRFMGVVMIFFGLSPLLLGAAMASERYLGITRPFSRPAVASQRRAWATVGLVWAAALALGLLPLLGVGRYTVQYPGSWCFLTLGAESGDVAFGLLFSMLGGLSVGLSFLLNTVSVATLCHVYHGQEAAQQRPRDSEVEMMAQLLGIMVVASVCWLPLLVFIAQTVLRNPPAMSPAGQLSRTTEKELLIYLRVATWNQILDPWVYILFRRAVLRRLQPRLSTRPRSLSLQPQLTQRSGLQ
# Chain of Testosterone (cytosolic) (P10275 whole entry): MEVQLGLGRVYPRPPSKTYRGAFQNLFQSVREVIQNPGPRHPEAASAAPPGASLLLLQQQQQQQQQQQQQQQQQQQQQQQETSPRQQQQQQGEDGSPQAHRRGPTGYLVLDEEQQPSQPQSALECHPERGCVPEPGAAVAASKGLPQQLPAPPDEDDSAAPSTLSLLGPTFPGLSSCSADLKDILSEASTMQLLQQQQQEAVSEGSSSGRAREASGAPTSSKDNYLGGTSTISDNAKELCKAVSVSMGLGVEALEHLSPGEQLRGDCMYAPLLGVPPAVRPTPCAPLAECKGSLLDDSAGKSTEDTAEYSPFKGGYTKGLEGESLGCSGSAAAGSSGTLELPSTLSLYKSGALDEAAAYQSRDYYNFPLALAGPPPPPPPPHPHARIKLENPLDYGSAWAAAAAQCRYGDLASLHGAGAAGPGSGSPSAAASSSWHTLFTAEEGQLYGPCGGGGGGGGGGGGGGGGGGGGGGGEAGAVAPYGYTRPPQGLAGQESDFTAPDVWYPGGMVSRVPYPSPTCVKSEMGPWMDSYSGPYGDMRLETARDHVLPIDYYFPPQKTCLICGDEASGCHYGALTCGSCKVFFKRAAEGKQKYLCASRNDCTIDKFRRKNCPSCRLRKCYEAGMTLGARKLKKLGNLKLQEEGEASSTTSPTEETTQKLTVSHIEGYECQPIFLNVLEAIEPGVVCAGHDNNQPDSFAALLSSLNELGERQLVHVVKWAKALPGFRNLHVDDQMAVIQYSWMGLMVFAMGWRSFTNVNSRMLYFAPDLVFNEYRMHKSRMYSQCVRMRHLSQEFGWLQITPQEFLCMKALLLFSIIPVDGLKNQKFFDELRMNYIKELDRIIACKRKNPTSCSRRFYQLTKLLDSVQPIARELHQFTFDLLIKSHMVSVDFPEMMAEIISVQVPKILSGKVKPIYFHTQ
# Chain of Angiotensin II, AT1 (h) (P30556 whole entry): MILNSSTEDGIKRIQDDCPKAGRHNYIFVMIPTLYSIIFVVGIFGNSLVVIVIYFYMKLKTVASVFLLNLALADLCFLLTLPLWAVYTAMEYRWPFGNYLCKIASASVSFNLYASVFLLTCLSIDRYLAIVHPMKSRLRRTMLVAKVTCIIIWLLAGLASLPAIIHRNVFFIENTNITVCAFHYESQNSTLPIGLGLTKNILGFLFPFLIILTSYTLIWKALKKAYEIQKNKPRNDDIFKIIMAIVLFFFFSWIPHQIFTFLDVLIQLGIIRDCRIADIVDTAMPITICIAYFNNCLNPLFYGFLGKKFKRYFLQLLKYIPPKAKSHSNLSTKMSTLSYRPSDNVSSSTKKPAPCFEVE
# Chain of Cholecystokinin, CCK1 (CCKA) (P32238 whole entry): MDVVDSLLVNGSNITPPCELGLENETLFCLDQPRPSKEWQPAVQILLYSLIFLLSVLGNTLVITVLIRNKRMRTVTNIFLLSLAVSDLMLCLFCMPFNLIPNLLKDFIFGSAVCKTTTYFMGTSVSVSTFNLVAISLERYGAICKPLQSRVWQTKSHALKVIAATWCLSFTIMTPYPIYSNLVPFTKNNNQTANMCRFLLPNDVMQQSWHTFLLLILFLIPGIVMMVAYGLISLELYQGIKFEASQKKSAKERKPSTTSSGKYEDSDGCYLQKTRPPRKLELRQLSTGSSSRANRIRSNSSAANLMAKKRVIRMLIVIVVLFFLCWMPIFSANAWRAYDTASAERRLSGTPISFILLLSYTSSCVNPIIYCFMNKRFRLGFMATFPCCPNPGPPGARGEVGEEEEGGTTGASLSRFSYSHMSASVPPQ
# Chain of hERG (Q12809 whole entry): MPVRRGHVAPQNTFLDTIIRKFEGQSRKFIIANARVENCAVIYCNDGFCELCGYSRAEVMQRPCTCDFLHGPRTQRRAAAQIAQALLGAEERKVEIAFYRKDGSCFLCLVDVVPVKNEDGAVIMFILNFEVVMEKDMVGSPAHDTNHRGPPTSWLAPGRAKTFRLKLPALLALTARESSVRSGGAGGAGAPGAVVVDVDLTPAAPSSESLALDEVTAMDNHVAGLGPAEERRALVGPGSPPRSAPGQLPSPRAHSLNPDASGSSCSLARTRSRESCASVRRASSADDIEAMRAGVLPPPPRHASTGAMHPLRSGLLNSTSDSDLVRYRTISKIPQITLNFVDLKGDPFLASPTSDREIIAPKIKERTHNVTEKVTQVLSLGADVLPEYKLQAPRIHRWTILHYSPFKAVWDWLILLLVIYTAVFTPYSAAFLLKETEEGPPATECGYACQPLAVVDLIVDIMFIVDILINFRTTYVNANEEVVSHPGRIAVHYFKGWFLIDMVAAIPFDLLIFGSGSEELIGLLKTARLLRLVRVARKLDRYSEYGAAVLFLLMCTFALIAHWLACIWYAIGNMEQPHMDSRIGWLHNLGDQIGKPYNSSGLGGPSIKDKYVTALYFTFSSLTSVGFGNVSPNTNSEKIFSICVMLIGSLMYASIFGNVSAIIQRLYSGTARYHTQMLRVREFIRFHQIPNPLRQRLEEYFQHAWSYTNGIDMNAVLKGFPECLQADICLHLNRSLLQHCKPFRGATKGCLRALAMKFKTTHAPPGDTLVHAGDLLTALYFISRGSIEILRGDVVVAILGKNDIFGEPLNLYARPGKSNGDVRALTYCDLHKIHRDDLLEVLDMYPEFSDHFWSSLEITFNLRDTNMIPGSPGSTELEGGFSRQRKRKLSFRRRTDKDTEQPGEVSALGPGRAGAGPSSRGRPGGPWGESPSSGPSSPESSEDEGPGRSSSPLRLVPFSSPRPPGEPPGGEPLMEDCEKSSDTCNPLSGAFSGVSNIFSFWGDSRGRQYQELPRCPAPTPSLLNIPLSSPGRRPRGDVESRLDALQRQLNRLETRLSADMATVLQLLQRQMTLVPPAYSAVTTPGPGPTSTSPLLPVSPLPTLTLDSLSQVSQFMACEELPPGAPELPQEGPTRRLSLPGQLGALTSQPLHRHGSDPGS
# Chain of Vasopressin 1 (P37288 whole entry): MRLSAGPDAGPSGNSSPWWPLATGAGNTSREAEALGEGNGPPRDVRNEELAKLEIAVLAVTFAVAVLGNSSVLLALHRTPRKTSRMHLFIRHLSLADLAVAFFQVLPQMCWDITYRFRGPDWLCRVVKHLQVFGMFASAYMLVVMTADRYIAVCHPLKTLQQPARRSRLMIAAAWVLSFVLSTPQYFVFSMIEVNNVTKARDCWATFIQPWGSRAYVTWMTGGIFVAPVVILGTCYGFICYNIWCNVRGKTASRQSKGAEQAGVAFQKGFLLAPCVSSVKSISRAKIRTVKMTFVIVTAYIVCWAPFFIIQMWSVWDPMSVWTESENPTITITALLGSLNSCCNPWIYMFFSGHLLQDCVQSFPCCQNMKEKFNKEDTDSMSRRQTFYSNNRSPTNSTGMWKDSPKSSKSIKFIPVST
# T1 sequence (P33261 whole entry): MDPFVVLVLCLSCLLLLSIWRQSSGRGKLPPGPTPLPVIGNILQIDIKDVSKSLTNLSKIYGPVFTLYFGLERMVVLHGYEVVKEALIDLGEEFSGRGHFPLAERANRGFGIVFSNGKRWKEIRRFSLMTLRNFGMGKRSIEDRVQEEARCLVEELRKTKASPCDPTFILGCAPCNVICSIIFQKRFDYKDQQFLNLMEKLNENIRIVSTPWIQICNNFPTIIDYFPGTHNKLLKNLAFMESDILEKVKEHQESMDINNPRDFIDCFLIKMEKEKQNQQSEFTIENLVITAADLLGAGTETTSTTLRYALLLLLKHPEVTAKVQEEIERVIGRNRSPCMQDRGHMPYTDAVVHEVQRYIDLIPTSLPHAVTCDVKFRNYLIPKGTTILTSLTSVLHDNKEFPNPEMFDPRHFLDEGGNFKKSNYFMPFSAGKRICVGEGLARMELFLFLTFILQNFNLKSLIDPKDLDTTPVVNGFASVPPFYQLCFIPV
smiles,measurement,setting,value
CC(C)(CN1CCC(=C2c3ccc(F)cc3COc3ccccc32)CC1)C(=O)O [Compound 49a],inhibition of CYP 2C19 activity,[1],did not inhibit
same,inhibition of CYP 2D6 activity,[2],did not inhibit
same,NOAEL at 14 days,[3],30 mg/kg/day
same,mean body weight,[4]; 150 mg/kg/day males,depression in mean body weight of the 150 mg/kg/day males
same,"mean weights of thymus, lung, and heart","[4]; 150 mg/kg/day males, terminal sacrifice",significantly low relative to brain weight
same,food consumption,"[4]; 150 mg/kg/day, Week 1",depression in food consumption in 150 mg/kg/day rats in Week 1
same,expected pharmacological effects (clinical signs),"[4]; 10, 30, or 150 mg/kg/day","hypoactivity, ataxia, and the appearance of sleep, were commonly observed"
same,unscheduled deaths,"[4]; 10, 30, or 150 mg/kg/day, 14 days",largely restricted to the 150 mg/kg/day groups
same,ophthalmic observations,[4]; all groups,No ophthalmic lesions
same,clinical pathology findings,"[4]; rat, in vivo",unrelated to treatment
same,increases in Cmax and AUC(0-t) with dose,"[4]; rat, in vivo",greater than dose proportional
same,accumulation after multiple dosing,[4]; rats,Minimum accumulation
same,macroscopic and microscopic findings,[4]; terminal and recovery sacrifice rats,No treatment-related macroscopic observations or microscopic toxic effects
same,clinical observations,[5]; 3 mg/kg/day Phase 1 dogs,no treatment-related clinical observations
same,"respiration rates, rectal body temperatures, body weights, food consumption, electrocardiograms, ophthalmic examinations",[5]; Phase 1 and 2,no changes
same,clinical observations,[5]; Phase 2 (capsules),"treatment-related head tremors, ataxia, hypoactivity, and excessive salivation"
same,clinical laboratory data,"[5]; dog, in vivo",no evidence in the clinical laboratory data of an effect
same,survival,"[5]; dog, in vivo",survived until scheduled sacrifice
same,NOAEL at 14 days,[6],70 mg/kg/day
same,hERG at micromolar (% blocking of the hERG channel),[7],10.9 @ 10%
same,inhibition of CYP 3A activity,[8],did not inhibit
same,unchanged drug and metabolites in urine,[9],has been found in the urine
CC(CC(=O)O)N1CCC(=C2c3ccc(F)cc3COc3ccccc32)CC1 (stereo not shown) [Compound 37],inhibition at 1 µM,[10],2.14%
same,inhibition at 1 µM,[11],-2.98%
same,inhibition at 1 µM,[12],17.2%
same,percentage inhibition,[13],2.54%
same,inhibition at 1 µM,[14],11.6%
same,percentage inhibition of specific binding,[15],2.51%
same,percentage inhibition of specific binding,[16],−4.68%
same,percentage inhibition of specific binding,[17],6.97%
same,percentage inhibition,[18],−17.23% ^
same,inhibition at 1 µM,[19],0.24%
same,inhibition at 1 µM,[20],6.55%
same,inhibition at 1 µM,[21],0.8%
same,inhibition at 1 µM,[22],3.45%
same,inhibition at 1 µM,[23],-3.04%
same,percentage inhibition,[24],6.51%
same,inhibition at 1 µM,[25],12%
same,inhibition at 1 µM,[26],8.92%
same,inhibition at 1 µM,[27],-6.51%
